Test results as given in patent US20240158446A1, “CYCLIC COMPOUND HAVING SELECTIVE INHIBITORY ACTION ON KRAS OVER HRAS AND NRAS” (CHUGAI SEIYAKU KABUSHIKI KAISHA, priority 2021, published 2024).

Key:
[1] = molecular target: GDP-bound KRAS wild-type protein (Homo sapiens, UniProt P01116); assay: Binding to KRAS by surface plasmon resonance (SPR), Single Cycle Kinetics; settings: SPR, Single Cycle Kinetics, GDP-bound KRAS wild-type protein; read-out: KRAS KD
[2] = molecular target: GDP-bound NRAS wild-type protein (Homo sapiens, UniProt P01111); assay: Binding to NRAS by surface plasmon resonance (SPR), Single Cycle Kinetics; settings: SPR, GDP-bound NRAS wild-type protein vs GDP-bound KRAS wild-type protein
[3] = molecular target: GDP-bound HRAS wild-type protein (Homo sapiens, UniProt P01112); assay: Binding to HRAS by surface plasmon resonance (SPR), Single Cycle Kinetics; settings: SPR, GDP-bound HRAS wild-type protein vs GDP-bound KRAS wild-type protein
GDP-bound HRAS wild-type protein, sequence (P01112 whole entry): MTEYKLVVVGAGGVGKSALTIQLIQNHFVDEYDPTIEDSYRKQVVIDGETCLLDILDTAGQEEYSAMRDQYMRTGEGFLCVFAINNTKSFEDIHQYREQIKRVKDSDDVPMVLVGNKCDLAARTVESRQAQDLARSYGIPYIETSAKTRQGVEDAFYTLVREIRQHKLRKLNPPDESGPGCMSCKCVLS

GDP-bound NRAS wild-type protein, sequence (P01111 whole entry): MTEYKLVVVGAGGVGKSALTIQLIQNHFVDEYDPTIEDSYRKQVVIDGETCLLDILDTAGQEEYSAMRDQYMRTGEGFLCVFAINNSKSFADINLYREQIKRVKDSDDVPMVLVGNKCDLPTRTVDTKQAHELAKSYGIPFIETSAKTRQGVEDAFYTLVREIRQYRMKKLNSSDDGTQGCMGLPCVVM
GDP-bound KRAS wild-type protein, sequence (P01116 whole entry): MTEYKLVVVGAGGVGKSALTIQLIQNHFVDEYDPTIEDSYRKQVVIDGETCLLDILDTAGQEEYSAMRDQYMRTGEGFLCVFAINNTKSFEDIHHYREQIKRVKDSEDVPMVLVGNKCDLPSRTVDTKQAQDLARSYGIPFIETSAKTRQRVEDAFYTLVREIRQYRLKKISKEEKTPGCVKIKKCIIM

SMILES | Kd [1] [nM] | NRAS/KRAS (ratio of KD value for NRAS to KD value for KRAS) [2] | HRAS/KRAS (ratio of KD value for HRAS to KD value for KRAS) [3]
C#CCN1CC(=O)N(C)[C@H]2C/C=C\CCN(C2=O)[C@@H](Cc2ccc(C)cc2)C(=O)N(C)CC(=O)N[C@@H](CCc2cc(F)c(C(F)(F)F)c(F)c2)C(=O)N2C[C@H](OCC)C[C@H]2C(=O)NC2(CC(C)(C)C2)C(=O)N(C)[C@@H](C2CCCC2)C(=O)N(C)[C@H](C(=O)N(C)C)CC(=O)N(C)[C@@H](CCC)C(=O)N[C@@H]([C@@H](C)CC)C1=O [PP2095] | 0.15 | A (a compound having 10 or more and less than 20 is denoted as A) | A (a compound having 10 or more and less than 20 is denoted as A)
CCC[C@H]1C(=O)N[C@@H]([C@@H](C)CC)C(=O)N(C2CC2)CC(=O)N(C)[C@H]2C/C=C\CCN(C2=O)[C@@H](Cc2ccc(C(F)(F)F)cc2)C(=O)N(C)CC(=O)N[C@@H](CCc2cc(F)c(C(F)(F)F)c(F)c2)C(=O)N2C[C@H](OCC)C[C@H]2C(=O)NC2(CC(C)(C)C2)C(=O)N(C)[C@@H](C2CCCC2)C(=O)N(C)[C@H](C(=O)N(C)C)CC(=O)N1C [PP2101] | 0.32 | A (a compound having 10 or more and less than 20 is denoted as A) | B (a compound having 3 or more and less than 10 is denoted as B)
C=CCN1CC(=O)N(C)[C@H]2C/C=C\CCN(C2=O)[C@@H](Cc2ccc(C(F)(F)F)cc2)C(=O)N(C)CC(=O)N[C@@H](CCc2cc(F)c(C(F)(F)F)c(F)c2)C(=O)N2C[C@H](OCC)C[C@H]2C(=O)NC2(CC(C)(C)C2)C(=O)N(C)[C@@H](C2CCCC2)C(=O)N(C)[C@H](C(=O)N(C)C)CC(=O)N(C)[C@@H](CCC)C(=O)N[C@@H]([C@@H](C)CC)C1=O [PP2102] | 0.16 | A (a compound having 10 or more and less than 20 is denoted as A) | A (a compound having 10 or more and less than 20 is denoted as A)
CCC[C@H]1C(=O)N[C@@H]([C@@H](C)CC)C(=O)N(C2CC2)CC(=O)N(C)[C@H]2C/C=C\CCN(C2=O)[C@@H](Cc2ccc(C(F)(F)F)cc2)C(=O)N(C)CC(=O)N[C@@H](CCc2ccc(C(F)(F)F)c(OC)c2)C(=O)N2C[C@H](OCC)C[C@H]2C(=O)NC2(CC(C)(C)C2)C(=O)N(C)[C@@H](C2CCCC2)C(=O)N(C)[C@H](C(=O)N(C)C)CC(=O)N1C [PP2105] | 0.18 | A (a compound having 10 or more and less than 20 is denoted as A) | A (a compound having 10 or more and less than 20 is denoted as A)
C#CCN1CC(=O)N(C)[C@H]2C/C=C\CCN(C2=O)[C@@H](Cc2ccc(C(F)(F)F)cc2)C(=O)N(C)CC(=O)N[C@@H](CCc2ccc(C(F)(F)F)c(OC)c2)C(=O)N2C[C@H](OCC)C[C@H]2C(=O)NC2(CC(C)(C)C2)C(=O)N(C)[C@@H](C2CCCC2)C(=O)N(C)[C@H](C(=O)N(C)C)CC(=O)N(C)[C@@H](CCC)C(=O)N[C@@H]([C@@H](C)CC)C1=O [PP2107] | 0.15 | A (a compound having 10 or more and less than 20 is denoted as A) | A (a compound having 10 or more and less than 20 is denoted as A)
CCO[C@@H]1C[C@H]2C(=O)NC3(CCC3)C(=O)N(C)[C@@H](C3CCCC3)C(=O)N(C)[C@H](C(=O)N(C)CC)CC(=O)N(C)[C@H]3CCCCCc4ccc(cc4)C[C@@H](C(=O)N(C)CC(=O)N[C@@H](CCc4ccc(C(F)(F)F)c(OC)c4)C(=O)N2C1)N1CC/C=C\C[C@@H](C1=O)N(C)C(=O)CN(C)C(=O)[C@H]([C@@H](C)CC)NC3=O [PP2118] | 0.15 | A (a compound having 10 or more and less than 20 is denoted as A) | B (a compound having 3 or more and less than 10 is denoted as B)

More lines, main results first:

Kd [1] [nM] | SMILES | NRAS/KRAS (ratio of KD value for NRAS to KD value for KRAS) [2] | HRAS/KRAS (ratio of KD value for HRAS to KD value for KRAS) [3]
0.29 | C=CCN1CC(=O)N(C)[C@H]2C/C=C\CCN(C2=O)[C@@H](Cc2ccc(C)cc2)C(=O)N(C)CC(=O)N[C@@H](CCc2cc(F)c(C(F)(F)F)c(F)c2)C(=O)N2C[C@H](OCC)C[C@H]2C(=O)NC2(CC(C)(C)C2)C(=O)N(C)[C@@H](C2CCCC2)C(=O)N(C)[C@H](C(=O)N(C)C)CC(=O)N(C)[C@@H](CCC)C(=O)N[C@@H]([C@@H](C)CC)C1=O [PP2094] | A (a compound having 10 or more and less than 20 is denoted as A) | A (a compound having 10 or more and less than 20 is denoted as A)
0.42 | CCCN1CC(=O)N(C)[C@H]2C/C=C\CCN(C2=O)[C@@H](Cc2ccc(C)cc2)C(=O)N(C)CC(=O)N[C@@H](CCc2ccc(C(F)(F)F)c(OC)c2)C(=O)N2C[C@H](OCC)C[C@H]2C(=O)NC2(CC(C)(C)C2)C(=O)N(C)[C@@H](C2CCCC2)C(=O)N(C)[C@H](C(=O)N(C)C)CC(=O)N(C)[C@@H](CC)C(=O)N[C@@H]([C@@H](C)CC)C1=O [PP2096] | A (a compound having 10 or more and less than 20 is denoted as A) | A (a compound having 10 or more and less than 20 is denoted as A)
0.2 | C=CCN1CC(=O)N(C)[C@H]2C/C=C\CCN(C2=O)[C@@H](Cc2ccc(C)cc2)C(=O)N(C)CC(=O)N[C@@H](CCc2ccc(C(F)(F)F)c(OC)c2)C(=O)N2C[C@H](OCC)C[C@H]2C(=O)NC2(CC(C)(C)C2)C(=O)N(C)[C@@H](C2CCCC2)C(=O)N(C)[C@H](C(=O)N(C)C)CC(=O)N(C)[C@@H](CCC)C(=O)N[C@@H]([C@@H](C)CC)C1=O [PP2098] | A (a compound having 10 or more and less than 20 is denoted as A) | A (a compound having 10 or more and less than 20 is denoted as A)
0.25 | C#CCN1CC(=O)N(C)[C@H]2C/C=C\CCN(C2=O)[C@@H](Cc2ccc(C(F)(F)F)cc2)C(=O)N(C)CC(=O)N[C@@H](CCc2cc(F)c(C(F)(F)F)c(F)c2)C(=O)N2C[C@H](OCC)C[C@H]2C(=O)NC2(CC(C)(C)C2)C(=O)N(C)[C@@H](C2CCCC2)C(=O)N(C)[C@H](C(=O)N(C)C)CC(=O)N(C)[C@@H](CCC)C(=O)N[C@@H]([C@@H](C)CC)C1=O [PP2103] | A (a compound having 10 or more and less than 20 is denoted as A) | A (a compound having 10 or more and less than 20 is denoted as A)
0.2 | C=CCN1CC(=O)N(C)[C@H]2C/C=C\CCN(C2=O)[C@@H](Cc2ccc(C(F)(F)F)cc2)C(=O)N(C)CC(=O)N[C@@H](CCc2ccc(C(F)(F)F)c(OC)c2)C(=O)N2C[C@H](OCC)C[C@H]2C(=O)NC2(CC(C)(C)C2)C(=O)N(C)[C@@H](C2CCCC2)C(=O)N(C)[C@H](C(=O)N(C)C)CC(=O)N(C)[C@@H](CCC)C(=O)N[C@@H]([C@@H](C)CC)C1=O [PP2106] | A (a compound having 10 or more and less than 20 is denoted as A) | A (a compound having 10 or more and less than 20 is denoted as A)
